Where “and” joins values, the source holds several entries; their conditions need not be identical. Equal entries are not always repeated.
What was measured:
[1] = tested on: IL-12 secretion by primary human monocytes; test: Cytokine IL-12 assay in monocytes stimulated with P. acnes sonicate; assay type: cell-based; details: compared with 1% DMSO / untreated
Description: FIG. 3A. Cytokine IL-12 Assay.
The anti-inflammatory properties of resveratrol, benzoyl peroxide and the combination of resveratrol and benzoyl peroxide are exemplified by the cytokine IL-12 assay. […] To address this, we next investigated the cytotoxic effects of the various treatment groups.
To address this, we next investigated the cytotoxic effects of the various treatment groups.

P. acnes [2] = test: Transmission electron microscopy of P. acnes; assay type: cell-based, Propionibacterium acnes; details: 1 mg/mL, 24 hours
Description: FIG. 4A. Electron Microscopy of P. acnes control without stimulus. […] Samples were visualized at 80 kV on a JEOL 100CX electron microscope. Bacteria were magnified according to the scale indicated below the main image, with higher magnification images located in the lower left inset.
This implies cellular lysis and death of the majority of bacterium, leaving only remaining unaffected bacteria to replicate and grow.
Resveratrol induced structural changes in the cell membrane of P. acnes. […] This implies cellular lysis and death of the majority of bacterium, leaving only remaining unaffected bacteria to replicate and grow.

primary human monocytes = test: MTS cytotoxicity assay; assay type: cell-based; details: for monocytes killed: 10 μg/mL
Experimental: FIG. 3B. Cytotoxicity Assay. […] The percentage of cells still viable after 16 hour incubation (compared to 1% DMSO control) were assessed (Y-axis) by measuring absorbance of the sample, which is proportional to the number of viable cells.
The cytotoxicity of resveratrol, benzoyl peroxide, and the combination of resveratrol and benzoyl peroxide was also assessed. (see FIG. 3B) We analyzed the cell viability of human monocytes using the MTS cytotoxicity assay. […] The direct cell cytotoxicity of benzoyl peroxide may explain the decrease in IL-12 activity, more a result of direct cell death, than actual anti-inflammatory properties of benzoyl peroxide.
We analyzed the cell viability of human monocytes using the MTS cytotoxicity assay.

[3] = tested on: Propionibacterium acnes ATCC strain 6919; test: Colony Forming Unit (CFU) assay of P. acnes over 10 days; assay type: cell-based; details: for bactericidal activity in comparison at equal concentration: 75 μg/mL, FIG. 2D; for antimicrobial activity over time (words): CFU assay, irrespective of concentration
Experimental: FIG. 2A. […] Bacterial growth was assessed in terms of the growth factor of P. acnes (Y-axis), determined by the change in the number of bacteria compared to baseline control (set at 1 on Day 0). Concentrations were obtained over a 10-day period and plotted logarithmically. FIG. 2B. Colony Forming Unit (CFU) assays of P. acnes incubated with Benzoyl Peroxide (BPO). FIG. 2C. […] FIG. 2D. […] Having described the invention in general terms, the following specific example is offered for purpose of illustration and for illustration only, and no intention to limit the invention is to be inferred there from. […] Resveratrol and benzoyl peroxide were obtained from Sigma-Aldrich St. Louis, Mo. […] Propionibacterium acnes ATCC […] strain 6919 was grown anaerobically at 37° C. in Reinforced Clostridial Media (Oxoid) for 3 days and collected in the exponential phase of growth by centrifugation. Bacteria were washed with pH 7 sodium phosphate buffer supplemented by 0.03% Trypticase Soy Media and quantified by reading with a spectrophotometer at 600 nm and applying a conversion of ˜1×10^8 bacteria=1 absorbance unit. […] Samples were incubated anaerobically at 37° C. for intervals of 1, 2, 3, 7, and 10 days and then plated on brucella agar with 5% sheep blood supplemented with hemin and vitamin K (Remel). […] The results were plotted logarithmically as multiples of the initial concentration, which was designated as 1 at Day 0.

P. acnes [4] = test: P. acnes growth inhibition, 48 hour incubation and plating at different dilutions; assay type: cell-based, Propionibacterium acnes
Experimental: Serial dilutions of P. acnes plated without treatment provided qualitative comparisons to experimental groups treated with RES. Significant growth inhibition of P. acnes was first noted at 50 μg/mL and was dose dependent. […] (FIG. 2A).

SMILES | concentration from which IL-12 secretion was diminished [1] | structural changes of P. acnes (P. acnes [2]) | monocytes killed (primary human monocytes; human, 16 h) | bactericidal activity in comparison at equal concentration ([3]; 10-day period) | concentrations with sustained and dose dependent bactericidal effect ([3]; 10-day period, FIG. 2A) | antimicrobial activity over time (words) [3] | growth equivalent to dilution of untreated P. acnes plates (P. acnes [4]; 50 μg/mL, 48 hours) | concentration at which significant growth inhibition of P. acnes was first noted (P. acnes [4]; 48 hours incubation, about 1.33×10^6 bacteria) | monocytes killed (primary human monocytes; 16 hour incubation, relative to 1% DMSO control) | lowest concentration toxic to monocytes (primary human monocytes; human, 16 h) | fold more bactericidal than RES ([3]; 50 μg/mL, at 24 hours) | antimicrobial activity over time (words) ([3]; listed as benzoyl peroxide) | lowest dose with bactericidal activity ([3]; data not shown)
Oc1ccc(C=Cc2cc(O)cc(O)c2)cc1 [RES, 3,5,4′-trihydroxystilbene] | ≥ 10 µg/mL | loss of membrane definition due to intramembranous edema and loss of well defined extracellular fimbrial structures | approximately 35% | slow but sustained bactericidal activity | 75 µg/mL and 100 µg/mL | slow but sustained antimicrobial response | ~1000 × dilution | 50 µg/mL | – | – | – | – | –
O=C(OOC(=O)c1ccccc1)c1ccccc1 [BPO, Benzoyl Peroxide] | ≥ 2.5 µg/mL | structurally identical to control | – | short but immediate bactericidal activity | – | minimal effect on bacterial growth after 24 hours | – | – | greater than 90% | 5 µg/mL | ~1000 × | virtually no activity remaining after 48 hours | 25 µg/mL

Reference: patent US9549905B2, “Treatment of inflammatory and infectious skin disorders” (The Regents of the University of California, priority 2011, dated 2017)
